Experiments:
hM3Dq in Q-neurons = biological target: T1, hM3Dq in Q-neurons (Homo sapiens, UniProt P20309, A239G/Y149C); test: Estimation of thermoregulatory parameters G, H and TR during CNO-induced QIH in Q-hM3D mice; assay type: in vivo
T1 construct: mCherry (C); expressed in transfected cells; host or cells: QRFP-producing (Q) neurons of Qrfp-iCre mice transduced in vivo with AAV10-EF1α-DIO-hM3Dq-mCherry
Text: In order to record the core body temperature, oxygen consumption amount, EEG, ECG, and respiratory patterns, each animal was housed in a temperature controlled chamber (HC-100, Shin Factory or LP-400P-AR, Nippon Medical & Chemical Instruments Co., Ltd.). In order to continuously record the TB (intraperitoneal temperature), a telemetry temperature sensor (TA11TA-F10, DSI) was implanted into the animal's abdominal cavity under general inhalation anesthesia at least 7 days prior to the recording. The VO 2 and carbon dioxide discharge rate (VCO2) of the animal were continuously recorded using a respiratory gas analyzer (ARCO-2000 mass spectrometer, ARCO System). The respiratory quotient was calculated from the ratio of VCO2/VO2.
(§1) The Dreadd agonist CNO (clozapine N-oxide, Abcam, ab141704) was dissolved in physiological saline at a dose of 100 μg/mL, and the solution was frozen at −20° C. The CNO solution was thawed on site and then administered to each mouse intraperitoneally at a dose of 1 mg/kg. The adenosineAl receptor agonist CHA (N^6-cyclohexyl adenosine, Sigma-Aldrich, C9901) was dissolved in physiological saline at a concentration of 250 μg/mL, and the solution was administered intraperitoneally to each mouse at a dose of 2.5 mg/kg.
To evaluate the thermoregulatory system under QIH and normal conditions, the heat loss and heat production of the animals were described in a hierarchical multilayer model (FIG. 3c to FIG. 3k, code folder QIH_GTRH). Three parameters of G, TR and H under two metabolic conditions, that is, normal and QIH conditions, were estimated from a metabolically stable state of the animals at various TAs. The detailed method has been previously described^3. In summary, a linear model formed from the controllable parameter TA and the observable parameters TB and VO2 was fitted to the experimental results for both TB and VO2 using TA as a predictor having normal distribution noise. Next, G, TR, and H were estimated using the post-distribution of the slope and intercept coefficients for each model. […]

[1] = test system: hM3Dq-mCherry expressing neurons; test: Electrophysiological study of hypothalamus slices, current-clamp firing; assay type: cell-based; conditions: bath-application, CNO 1 μM, slices of Q-hM3D mice
Protocol: The mice were decapitated under deep anesthesia using isoflurane (Pfizer). The brains were extracted and cooled in an ice-cold cutting solution containing the following (mM): 125 mM choline chloride, 25 mM NaHCO3, 10 mM D(+)-glucose, 7 mM MgCl2, 2.5 mM KCl, 1.25 mM NaH2PO4, and 0.5 mM CaCl2) bubbled with O2 (95%) and CO2 (5%). Horizontal brain slices (thickness of 250 μm) including the hypothalamus were prepared using a vibratome (VT1200S, Leica) and were maintained at room temperature for one hour in artificial CSF (ACSF) containing the following (mM): 125 mM NaCl, 26 mM NaHCO3, 10 mM D(+)-glucose, 2.5 mM KCl, 2 mM CaCl2), and 1 mM MgSO4 bubbled with O2 (95%) and CO2 (5%). The electrodes (5 to 8 MΩ) were filled with an internal solution containing the following (mM): 125 mM K-gluconate, 10 mM HEPES, 10 mM phosphocreatine, 0.05 mM tolbutamide, 4 mM NaCl, 4 mM ATP, 2 mM MgCl2, 0.4 mM GTP, and 0.2 mM EGTA, with a pH of 7.3 and adjusted with KOH). Firing of hM3Dq-mCherry expressing neurons was recorded in a current-clamp mode at a temperature of 30° C. CNO (1 μM) was bath-applied, and the effect was examined. The membrane voltage and data acquisition were controlled using a combination of the MultiClamp 700B amplifier, the Digidata 1440A A/D converter and Clampex 10.3 software (Molecular Devices). […]

[2] = biological target: T2, hM3Dq in iCre-positive neurons (Homo sapiens, UniProt P20309, A239G/Y149C); test: Infrared thermography and behaviour of Qrfp-iCre; Rosa26^dreaddm3 mice after IP CNO; assay type: in vivo
T2 construct: mCherry (C); expressed in transfected cells; host or cells: iCre-expressing neurons of Qrfp-iCre; Rosa26^dreaddm3 mice (CAG-hM3Dq-mCherry at the Rosa26 locus, in vivo)
T2 sequence (P20309 whole entry Y149C/A239G): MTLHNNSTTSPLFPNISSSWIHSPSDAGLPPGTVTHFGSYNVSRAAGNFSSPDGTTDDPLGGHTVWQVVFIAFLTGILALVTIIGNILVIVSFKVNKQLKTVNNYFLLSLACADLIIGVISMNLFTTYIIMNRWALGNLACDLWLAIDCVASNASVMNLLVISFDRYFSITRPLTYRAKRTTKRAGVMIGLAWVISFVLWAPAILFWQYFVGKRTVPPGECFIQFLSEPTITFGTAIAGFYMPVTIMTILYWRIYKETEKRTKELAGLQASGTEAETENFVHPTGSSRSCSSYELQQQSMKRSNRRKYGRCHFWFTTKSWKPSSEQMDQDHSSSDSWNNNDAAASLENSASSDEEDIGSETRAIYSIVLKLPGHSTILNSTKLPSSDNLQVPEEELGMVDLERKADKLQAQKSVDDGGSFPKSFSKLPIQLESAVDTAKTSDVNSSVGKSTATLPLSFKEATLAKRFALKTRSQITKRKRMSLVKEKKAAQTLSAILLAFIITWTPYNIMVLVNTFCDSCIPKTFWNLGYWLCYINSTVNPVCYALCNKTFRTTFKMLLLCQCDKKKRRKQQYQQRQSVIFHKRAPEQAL
Text: For thermographic analysis, the mice were inserted into an experiment cage (25×15×10 cm) and monitored using an infrared thermal imaging camera (InfReC R500 EX; Nippon Avionics) placed 30 cm above the cage floor. To clearly detect the surface temperature, the back hair was removed using hair clippers one day prior to the start of the experiment. Thermograms of DREADD and optogenetic experiments were collected at 0.5 Hz and 1 Hz, respectively, and analyzed using the InfReC Analyzer NS9500 Professional software (Nippon Avionics). The highest temperature of one frame was used as the TS of the animal (FIG. 1d).
as §1

T1 sequence (P20309 whole entry Y149C/A239G, the tested form may be a part): as the sequence (P20309 whole entry Y149C/A239G) above

C[N+]1([O-])CCN(C2=Nc3cc(Cl)ccc3Nc3ccccc32)CC1 [CNO, clozapine N-oxide]
reduction in H at each median (hM3Dq in Q-neurons; QIH versus normal state): 95.3%
TB and VO2 versus control at every TA (hM3Dq in Q-neurons; eleven hours after IP injection, TA 8-32° C.): low TB and VO2
difference in TR at each median (hM3Dq in Q-neurons; normal versus QIH): 8.41 °C
excitation of mCherry-positive neurons [1]: strongly excited
duration of TS reduction [2]: approximately 12 hours
onset of TS reduction after administration [2]: approximately 5 minutes
onset of sustained immobility after injection ([2]; intraperitoneal CNO): approximately 30 minutes
surface body temperature (TS) effect ([2]; thermography camera): significantly sustained hypothermia
